As usually defined, the Ki is the dissociation constant of the complex between target and ligand, obtained from inhibition or displacement. As usually defined, the EC50 is the concentration at which the effect is half-maximal. A high value points to lower potency in that assay. Usually ED50 stands for the dose at which the effect has come halfway, by size or by number of responders.

Read-outs that look alike come from different tables or passages of the source.

The procedure of data set [1]:
By “water-soluble” we mean that 1 mg of material in 1 ml of water gives a clear solution and is water miscible.
(§1) For the in vivo studies, the drugs were dissolved in either saline or emulphor:ethanol:saline (E:E:S) as indicated.

Data set [2] concerns the target T1, human CB1 receptor (Homo sapiens, UniProt P21554).
T1 construct: expressed in transfected cells; b94 says CHO for CB1
Description: CB1 receptor binding, [3H]CP55,940 displacement in membranes of transfected cells. The settings on record: CB1 Ki. The method, then: as §1
(§2) cLogP calculations. Absolute solubility determinations were not performed. Rather, cLogP calculations were performed using the CS ChemDraw Ultra software (Cambridge Soft Corporation, Cambridge, Mass.). Receptor Binding. HEK-293 cells stably expressing the human CB1 receptor were cultured in DMEM with 10% FBS and Chinese Hamster Ovary (CHO) cells stably expressing the human CB2 receptor were cultured in DMEM with 10% FCS. Cells were harvested by replacement of the media with cold phosphate-buffered saline containing 1 mM EDTA followed by centrifugation at 1000×g for 5 min at 4° C. The pellet was resuspended in 50 mM Tris-HCl containing 320 mM sucrose, 2 mM EDTA and 5 mM MgCl2 (pH 7.4) (centrifugation buffer), then centrifuged at 1000×g for 10 min at 4° C., and the resulting supernatant was saved. This process was repeated twice. The supernatant fractions were combined and centrifuged at 40,000×g for 30 min at 4° C. The resulting P2 pellet was resuspended in assay buffer (50 mM Tris-HCl (pH 7.4), 3 mM MgCl2, 0.2 mM EGTA, and 100 mM NaCl) and protein was determined by the method of Bradford ENRfu(Bradford 1976). Membranes were stored at −80° C. until use. […] The assay was incubated at 30° C. for 1 hr and terminated by addition of ice cold 50 mM Tris-HCl plus BSA (1 mg/ml) (pH 7.4) followed by filtration under vacuum through Whatman GF/B glass fiber filters with 3 washes with cold Tris buffer. Bound radioactivity was determined by liquid scintillation spectrophotometry at 50% efficiency after extraction by shaking samples for 30-60 min with Budget-Solve scintillation fluid. Data are reported as the mean±SEM of three experiments, each performed in triplicate. Ki values were calculated from displacement data using EBDA (Equilibrium Binding Data Analysis; BIOSOFT, Milltown, N.J.). [^35S]GTPγS Binding Assays. Concentration-effect curves were generated by incubating membranes (10 μg prepared from CB1 expressing cells as described above) in assay buffer containing BSA (1 mg/ml) with various concentrations of test compounds in the presence of 20 μM GDP and 0.1 nM [^35S]GTPγS in a 1 ml total volume. […] Basal binding was assessed in the absence of agonist, and nonspecific binding was measured in the presence of 10 μM GTPγS. The reaction was incubated for 90 min at 30° C. and terminated by filtration under vacuum through Whatman GF/B glass fiber filters with 3 washes with cold (4° C.) Tris buffer (50 mM Tris-HCl, pH 7.4). Bound radioactivity was determined by liquid scintillation spectrophotometry at 95% efficiency after extraction overnight in ScintiSafe Econo 1 scintillation fluid. Data are reported as mean±SEM of three experiments, each performed in triplicate. Nonlinear regression analysis was conducted by iterative fitting using JMP (SAS for Macintosh). Net-stimulated [^35S]GTPγS binding is defined as [^35S]GTPγS binding in the presence of drug minus basal and percent stimulation is expressed as (net stimulated [^35S]GTPγS binding/basal)×100%. Behavioral Evaluations. All animals were allowed to acclimate to the observation room overnight. Behavioral effects were assessed in the tetrad model in order to measure potency in producing antinociception, catalepsy, hypothermia, and hypomobility. The baselines for tail-flick latency (2-4 seconds) and rectal temperature were determined prior to i.v. injections. Baseline rectal temperatures were measured using a telethermometer and a thermometer probe inserted to 25 mm (Yellow Springs Instrument Co., Yellow Springs, Ohio). The mice were then given either an i.v. i.c.v. injection of the analog. The mice were placed in individual photocell activity chambers 5 min later. Spontaneous activity was monitored for 10 min in a Digiscan Animal Activity Monitor (Omnitech Electronice, Inc., Columbus, Ohio) as measured by the number of interruptions of 16 photocell beams per chamber.

In another data set the target is T2, human CB2 receptor (Homo sapiens, UniProt P34972).
T2 construct: expressed in transfected cells; b94 says HEK for CB2
As to the kind of experiment: CB2 receptor binding, [3H]CP55,940 displacement in membranes of transfected cells. The settings on record: Table 1B, mean±SEM. The method, then: as §2, with “chamber. The total number of beam interruptions during the 10-min period was determined and presented as total counts.” for “chamber.”

The target of data set [3] is T1, human CB1 receptor. As to the kind of experiment: [35S]GTPγS binding assay in membranes of CB1 expressing cells. The data set is classed as biochemical. The method, then:
as §1, §2
(Binding of GTPγS marks nucleotide exchange on a G protein.)

For data set [4], the system named is mice. Description: Spontaneous activity (S.A.), mouse tetrad. The settings on record: Mus musculus, iv, vehicle E:E:S (1:1:18), read-out: S.A. ED50 (reducing spontaneous activity). The data set is classed as in vivo.
The subject of data set [5] is mice. Description: Rectal temperature (R.T.), mouse tetrad. The data set is classed as in vivo. The settings on record: Mus musculus, iv, vehicle E:E:S (1:1:18), read-out: R.T. ED50 (lowering rectal temperature).
For data set [6], the system named is mice. Description: Tail-flick antinociception (T.F.), mouse tetrad. The data set is classed as in vivo. The settings on record: Mus musculus, iv, mice, i.v., vehicle E:E:S (1:1:18); read-out: T.F. ED50 (antinociception in the tail-flick procedure).
Data set [7] relates to mice. As to the kind of experiment: Tetrad model, all four behavioral measures together (time course, oral and i.c.v. administration). Format: in vivo, mouse. The settings on record: i.c.v.; analogs dissolved in water, THC in emulphor:ethanol:saline; Table 5 not given.
Where [8] appears, read: 1 mg of analog in 1 ml of water, visual observation.

T2 sequence (P34972 whole entry): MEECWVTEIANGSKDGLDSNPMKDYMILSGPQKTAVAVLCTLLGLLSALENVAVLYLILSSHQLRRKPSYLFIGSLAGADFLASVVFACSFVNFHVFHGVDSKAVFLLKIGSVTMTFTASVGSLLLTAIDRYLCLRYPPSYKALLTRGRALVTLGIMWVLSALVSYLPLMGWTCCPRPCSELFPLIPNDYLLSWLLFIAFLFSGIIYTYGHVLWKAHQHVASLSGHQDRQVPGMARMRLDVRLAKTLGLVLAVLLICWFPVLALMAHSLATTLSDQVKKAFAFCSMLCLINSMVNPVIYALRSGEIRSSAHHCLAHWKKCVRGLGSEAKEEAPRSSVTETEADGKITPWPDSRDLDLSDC
T1 sequence (P21554 whole entry): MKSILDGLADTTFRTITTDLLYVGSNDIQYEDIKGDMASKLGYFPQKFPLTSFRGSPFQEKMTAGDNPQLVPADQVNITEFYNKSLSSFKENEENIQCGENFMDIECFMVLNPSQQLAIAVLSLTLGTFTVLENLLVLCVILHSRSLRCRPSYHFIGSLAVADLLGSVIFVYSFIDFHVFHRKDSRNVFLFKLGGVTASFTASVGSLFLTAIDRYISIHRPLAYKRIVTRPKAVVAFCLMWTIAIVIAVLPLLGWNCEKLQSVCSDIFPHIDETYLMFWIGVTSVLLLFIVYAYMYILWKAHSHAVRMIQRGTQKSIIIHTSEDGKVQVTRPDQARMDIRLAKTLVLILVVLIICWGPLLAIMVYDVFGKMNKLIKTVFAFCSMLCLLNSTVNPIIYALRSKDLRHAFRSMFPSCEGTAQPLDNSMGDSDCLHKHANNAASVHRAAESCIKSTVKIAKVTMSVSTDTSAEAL

As for `CC1=CC[C@@H]2[C@@H](C1)c1c(O)cc(C(C)(C)CCCCNC(=O)Cc3nc(-c4ccccc4)oc3C)cc1OC2(C)C` [O-2590, 5-Methyl-2-phenyl-oxazol-4-yl-acetamide], in data set [1] (setting [8]), the “Solubility (water-soluble)” value was “No”. Further, the Ki stood at 890 ± 161 nM on human CB1 receptor [2] (Table 1B, mean±SEM) and 169 ± 39.1 nM on human CB2 receptor (CB2 Ki).

For `CC1=CC[C@@H]2[C@@H](C1)c1c(O)cc(C(C)(C)CCCCNC(=O)N3CCOCC3)cc1OC2(C)C` [O-2619, Morpholino-1-carboxylic acid amide], in data set [1], the “Solubility (water-soluble)” value is given as “No”. On human CB1 receptor [3] (CB1 EC50, [35S]GTPγS binding, mean±SEM), this compound had an EC50 of 86 ± 3.1 nM. For the same compound, the Emax at human CB1 receptor [3] (maximal GTPγS binding as percentage of stimulation produced by CP 55,940, read-out: CB1 % CP Stim) turned out to be 116 ± 7.94%. In addition, the values for the Ki at human CB1 receptor [2] and on human CB2 receptor (read-out: CB2 Ki) were 18.6 ± 3.94 nM and 2.26 ± 0.38 nM, respectively.

Consider `CC1=CC[C@@H]2[C@@H](C1)c1c(O)cc(C(C)(C)CCCCN(C(=O)N3CCOCC3)C(=O)N3CCOCC3)cc1OC2(C)C` [O-2620, Di(morpholino-1-carboxylic acid) amide], for which the Ki worked out at 3020 ± 579 nM at human CB1 receptor [2] and 772 ± 60.5 nM at human CB2 receptor (read-out: CB2 Ki).

As to `CCCCCc1cc(O)c2c(c1)OC(C)(C)C1CCC(C)=CC21` (stereo not drawn) [Δ^9-THC, Δ^9-tetrahydrocannabinol, reference compound], the figures for the ED50 with mice [4], with mice [5] and with mice [6] were 2.23 µmol/kg, 2.23 µmol/kg and 2.77 µmol/kg, respectively. In addition, the “Solubility (water-soluble)” value in data set [1] (setting [8]) is recorded as “No”. In the data set with mice [7], the “Activity in the behavioral tests after i.c.v. injection” value was “active with similar potencies in all tests, with the exception of weak antinociceptive activity”.

The record behind these values is patent US20080064679A1, “Water Soluble Cannabinoids” (priority 2004, published 2008).
